Laboratory results published in article PMC7155171, “Probing the Open Global Health Chemical Diversity Library for Multistage-Active Starting Points for Next-Generation Antimalarials” (ACS Infectious Diseases, 2020).
Read-outs that look alike come from different tables or passages of the source.

How the values were obtained:
[1] = tested on: P. falciparum Dd2 (PfLuc) line expressing firefly luciferase, asexual blood stage; experiment: microbe, parasite or virus in culture; assay type: cell-based, Plasmodium falciparum
P. falciparum Dd2 = experiment: SYBR green I asexual blood stage proliferation assay (96 h); assay type: cell-based, Plasmodium falciparum; conditions: Plasmodium falciparum; 96 h, Dd2; read-out: 96 h SYBR green ABS IC50
[2] = Plasmodium falciparum, DD2, 8-pt dose response, 96hr, read-out: P. falciparum Luciferase ABS 8-pt Reconfirmation Dose Response (96hr): IC50
[3] = Plasmodium falciparum, DD2, 8-pt dose response, 96hr, read-out: P. falciparum Luciferase ABS 8-pt Reconfirmation Dose Response (96hr): Maximum inhibition (%)
[4] = Plasmodium falciparum, DD2, read-out: P. falciparum Luciferase ABS 11-pt Reconfirmation Dose Response (48hr): IC50, 11-pt dose response, 48hr
[5] = Plasmodium falciparum, DD2, 11-pt dose response, 96hr, read-out: P. falciparum Luciferase ABS 11-pt Reconfirmation Dose Response (96hr): IC50
[6] = Plasmodium falciparum, DD2, 11-pt dose response, 96hr, read-out: P. falciparum Luciferase ABS 11-pt Reconfirmation Dose Response (96hr): Maximum inhibition (%)
[7] = Plasmodium falciparum, DD2, 11-pt dose response, 48hr, read-out: P. falciparum Luciferase ABS 11-pt Reconfirmation Dose Response (48hr): Maximum inhibition (%)
[8] = Plasmodium falciparum, DD2, 8-pt dose response, 96hr, read-out: CDD P. falciparum Luciferase ABS 8-pt Reconfirmation Dose Response (96hr): IC50
[9] = Plasmodium falciparum, DD2, 8-pt dose response, 96hr, read-out: CDD P. falciparum Luciferase ABS 8-pt Reconfirmation Dose Response (96hr): Maximum inhibition (%)

Compound: Cc1ccccc1CN(CCN(C)C)Cc1ccc(S(C)(=O)=O)cc1 [DDD01251767]
- IC50 [1, 2]: 1.52 µM
- Emax [1, 3]: 76.8%

Compound: COc1cccc(OC)c1CN1CC(=O)N(c2ccc(C)cc2)CC1C (centres unmarked) [DDD01252418]
- IC50 [1, 4]: 3.67 µM
- IC50 [1, 2]: 1.26 µM
- Emax [1, 3]: 89.5%
- IC50 [1, 5]: 1.8 µM
- Emax [1, 6]: 93.6%

Compound: Cc1nc(-c2cc(Cl)c3c(c2)CC(CN)O3)c[nH]1 (centres unmarked) [DDD01252814]
- IC50 [1, 2]: 2.18 µM
- Emax [1, 3]: 88.7%

Compound: CCC[C@H]1CN(c2nc(CO)cs2)C[C@@H]1NC(=O)C1(COC)CC1 [DDD01253377]
- IC50 [1, 2]: 1.81 µM
- Emax [1, 3]: 80.7%

Compound: Cc1cc(S(=O)(=O)NCC2CNCCOC2)c(C)cc1Cl (centres unmarked) [DDD01253448]
- IC50 [1, 4]: > 4.16 µM
- IC50 [1, 2]: 1.24 µM
- Emax [1, 3]: 89.3%
- Emax [1, 7]: 24.9%
- IC50 [1, 5]: 1.64 µM
- Emax [1, 6]: 89%

Compound: Cc1cccnc1CC(C)NC1Cc2ccccc2C1 (centres unmarked) [DDD01255733]
- IC50 [1, 2]: 1.76 µM
- Emax [1, 3]: 81.8%

Compound: Cc1c(C(=O)N2CCC(N3CCCCC3)CC2)n(C)c2ccc(Cl)cc12 [DDD01255900]
- IC50 ([1]; Plasmodium falciparum, DD2, read-out: CDD P. falciparum Luciferase ABS 11-pt Reconfirmation Dose Response (48hr): IC50 (μM), 11-pt dose response, 48hr): 3.56 µM
- IC50 [1, 8]: 1.11 µM
- Emax [1, 9]: 93.8%
- Emax ([1]; Plasmodium falciparum, DD2, 11-pt dose response, 48hr, read-out: CDD P. falciparum Luciferase ABS 11-pt Reconfirmation Dose Response (48hr): Maximum inhibition (%)): 96.3%
- IC50 ([1]; Plasmodium falciparum, DD2, 11-pt dose response, 96hr, read-out: CDD P. falciparum Luciferase ABS 11-pt Reconfirmation Dose Response (96hr): IC50): 1.7 µM
- Emax ([1]; Plasmodium falciparum, DD2, 11-pt dose response, 96hr, read-out: CDD P. falciparum Luciferase ABS 11-pt Reconfirmation Dose Response (96hr): Maximum inhibition (%)): 98.9%

Compound: c1ccc2sc(N3CCCN(c4ncnc5c4CCNC5)CC3)nc2c1 [DDD01257073]
- IC50 [1, 2]: 1.83 µM
- Emax [1, 3]: 84%

Compound: O=C(c1ccc(F)c(Cl)c1)N1C[C@H]2CC[C@@H](C1)N(Cc1ccccc1)C2 [DDD01257805]
- IC50 [1, 4]: 5.31 µM
- IC50 [1, 2]: 1.16 µM
- Emax [1, 3]: 85.8%
- Emax [1, 7]: 91.8%
- IC50 [1, 5]: 2.39 µM
- Emax [1, 6]: 97.8%

Compound: Cc1cc(F)ccc1CN1CCC(O)(CN2CCCCC2)C1 (centres unmarked) [DDD01258113]
- IC50 [1, 2]: 1.22 µM
- Emax [1, 3]: 83.7%

Compound: CCC1CN(C(=O)c2ccc(Cl)cc2O)CCN1C(C)C (centres unmarked) [DDD01258121]
- IC50 [1, 2]: 2.57 µM
- Emax [1, 3]: 80.5%

Compound: CN1CCCC(c2cccc(Cc3ccccc3Cl)n2)C1 (centres unmarked) [DDD01270191]
- IC50 [1, 2]: 1.72 µM
- Emax [1, 3]: 80.2%

Compound: CCN1CCCC(CNC(=O)C2(c3cc(C)cc(C)c3)CCC2)C1 (centres unmarked) [DDD01296287]
- IC50 [1, 2]: 1.39 µM

Compound: CC(O)CN1CCC(CNCc2ccc(OC(F)(F)F)cc2)CC1 (centres unmarked) [DDD01297562]
- IC50 [1, 2]: 1.25 µM
- Emax [1, 3]: 90.4%

Compound: CN1CCCC1CNC(=O)CCCOc1cccc(Br)c1 (centres unmarked) [DDD01297989]
- IC50 [1, 2]: 1.4 µM
- Emax [1, 3]: 83.9%

Compound: CCN(CC)C(CNC(=O)c1c(C)noc1C(C)C)c1ccsc1 (centres unmarked) [DDD01298744]
- IC50 [1, 8]: 0.96 µM
- Emax [1, 9]: 85.7%

Compound: c1cnnc(N2CCCC2CNc2ncnc3sccc23)c1 (centres unmarked) [DDD01299704]
- IC50 [1, 2]: 1.61 µM
- Emax [1, 3]: 92.3%

Compound: CN(Cc1ncc(C(C)(C)C)o1)CC1CCCN1c1cccnn1 (centres unmarked) [DDD01301524]
- IC50 [1, 2]: 1.81 µM

Compound: C[C@@H]1CC[C@H]2[C@@H](C)C(=O)O[C@@H]3O[C@@]4(C)CC[C@@H]1[C@]32OO4 [artemisinin, reference compound]
- inhibition at 10 µM ([1]; Plasmodium falciparum, DD2, 96 h, control at 10 μM, read-out: mean inhibition of positive control in ABS primary screen): 99.6 ± 1.03%

Compound: CCC[C@@H]1C[C@@H](C(=O)N[C@@H]([C@H]2O[C@H](SC)[C@H](O)[C@@H](O)[C@H]2O)[C@H](C)Cl)N(C)C1 [clindamycin, reference compound]
- IC50 (P. falciparum Dd2): > 10000 nM

Compound: Doxycycline [reference compound]
- IC50 ([1]; 96 h incubation, Dd2 luciferase, read-out: 96 hour Pfluc IC50): 0.55 ± 0.2 µM
- IC50 ([1]; read-out: 48 hour Pfluc IC50, 48 h incubation, Dd2 luciferase): 7.18 ± 1.59 µM
